Source: patent US8541455B2, “Derivatives of 2-pyridin-2-yl-pyrazol-3(2H)-one, preparation and therapeutic use thereof as HIF activators” (Sanofi, priority 2008, dated 2013)
Counter-ions that a name gives are not always drawn.

CCN(c1ccccc1)S(=O)(=O)c1ccc(-n2[nH]cc(Cc3cncc(OC)c3)c2=O)nc1.Cl
melting point: 136 °C

CCNS(=O)(=O)c1ccc(-n2[nH]c(C)c(Cc3cccnc3)c2=O)nc1 (as salt: HCl) [Compound 89]
melting point: 196 °C

Cc1[nH]n(-c2ccc(S(=O)(=O)Nc3ccccc3)cn2)c(=O)c1Cc1cccnc1 (as salt: HCl) [Compound 90]
melting point: 154 °C

CCN(c1ccccc1)S(=O)(=O)c1ccc(-n2[nH]cc(Cc3ccccc3)c2=O)nc1 (as salt: HCl) [Compound 93, 6-(4-benzyl-5-oxo-2,5-dihydro-1H-pyrazol-1-yl)-N-ethyl-N-phenylpyridine-3-sulfonamide]
melting point: 180 °C

CCN(c1ccccc1)S(=O)(=O)c1ccc(-n2[nH]c(C)c(CC3CCN(C)CC3)c2=O)nc1 (as salt: HCl) [Compound 94]
melting point: 150 °C

Cc1[nH]n(-c2ccc(S(=O)(=O)N(C)C3CC3)cn2)c(=O)c1Cc1cccnc1 (as salt: HCl) [Compound 95]
melting point: 138 °C

COc1cncc(Cc2c(C)[nH]n(-c3ccc(S(=O)(=O)NC(C)(C)C)cn3)c2=O)c1 (as salt: HCl) [Compound 96]
melting point: 150 °C

CCN(c1ccccc1)S(=O)(=O)c1ccc(-n2[nH]cc(Cc3cccnc3)c2=O)nc1 (as salt: HCl) [Compound 99]
melting point: 142 °C

CCN(C1CCCC1)S(=O)(=O)c1ccc(-n2[nH]cc(Cc3cccnc3)c2=O)nc1 (as salt: HCl) [Compound 115]
melting point: 110 °C

CN(C1CCCC1)S(=O)(=O)c1ccc(-n2[nH]cc(Cc3cccnc3)c2=O)nc1 (as salt: HCl) [Compound 117]
melting point: 124 °C

CCN(C1CCCC1)S(=O)(=O)c1ccc(-n2[nH]cc(Cc3ccncc3)c2=O)nc1 (as salt: HCl) [Compound 119]
melting point: 115 °C

CN(C1CCCC1)S(=O)(=O)c1ccc(-n2[nH]cc(Cc3ccncc3)c2=O)nc1 (as salt: HCl) [Compound 120]
melting point: 130 °C

CN(C)CCCN(C1CCCC1)S(=O)(=O)c1ccc(-n2[nH]cc(Cc3ccccc3)c2=O)nc1 (as salt: HCl) [Compound 123, 6-(4-benzyl-5-oxo-2,5-dihydro-1H-pyrazol-1-yl)-N-cyclopentyl-N-[3-(dimethylamino)propyl]pyridine-3-sulfonamide hydrochloride]
melting point: 230 °C

COC(=O)CN(C1CCCC1)S(=O)(=O)c1ccc(-n2[nH]cc(Cc3cccnc3)c2=O)nc1 (as salt: HCl) [Compound 128, methyl N-cyclopentyl-N-({6-[5-oxo-4-(pyridin-3-ylmethyl)-2,5-dihydro-1H-pyrazol-1-yl]pyridin-3-yl}sulfonyl)glycinate hydrochloride]
melting point: 110 °C

COC(=O)[C@H]1CCC[C@H]1N(C)S(=O)(=O)c1ccc(-n2[nH]cc(Cc3cccnc3)c2=O)nc1 (as salt: HCl) [Compound 131]
melting point: 156 °C

CC(C)(C)CNS(=O)(=O)c1ccc(-n2[nH]cc(Cc3cccnc3)c2=O)nc1 (as salt: HCl) [Compound 136]
melting point: 123 °C

CCC(C)(C)NS(=O)(=O)c1ccc(-n2[nH]cc(Cc3cccnc3)c2=O)nc1 (as salt: HCl) [Compound 137]
melting point: 126 °C

CN1CCC(N(C)S(=O)(=O)c2ccc(-n3[nH]cc(Cc4ccccc4)c3=O)nc2)C1 (stereo not drawn) (as salt: HCl) [Compound 139]
melting point: 130 °C

COC(C)(C)CNS(=O)(=O)c1ccc(-n2[nH]cc(Cc3ccccc3)c2=O)nc1 (as salt: HCl) [Compound 141]
melting point: 194 °C

COc1ccncc1Cc1c[nH]n(-c2ccc(S(=O)(=O)N(C)C3CCCC3)cn2)c1=O (as salt: HCl) [Compound 144]
melting point: 40 °C

CN(C)CC(C)(C)NS(=O)(=O)c1ccc(-n2[nH]cc(Cc3ccccc3)c2=O)nc1 (as salt: HCl) [Compound 152]
melting point: 230 °C
